Measured values from the supplement of paper PMC11208160.
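Note: IS621 bridge recombinase in Escherichia coli cells against a fixed T5 target plasmid.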

Assay: recombinant UMI read abundance after kanamycin selection (control-corrected) (log10(CPM+1)); higher = more efficient recombination; extreme values may be limits of the assay; sequences stand for … in AGTGCAGAGAAAATCGGCCAGTTTTCTCTGCCTGCAGTCCGCATGCCGTGGGACCCCTTGGGTTCTAACCTGTTGCCTAGATTTATGCAGCGGACTGCCTTTCTCCCAAAGTGATAAACCGG…AGGTTGGTTTCACT; site = the 11-nt donor
Summary of the method: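 Pooled Escherichia coli screen of donor and donor-binding-loop pairs for the IS621 bridge recombinase. Each pair sits with a 12-nt UMI on a plasmid carrying a promoterless kanamycin gene. The library was co-electroporated with a target plasmid encoding a fixed target and T7-inducible recombinase, then plated with IPTG (0.07 mM) plus kanamycin, or unselected, each in two replicates. Recombinant UMIs were PCR-amplified across the donor–target junction and sequenced. Counts became CPM, averaged over replicates, scaled by control-derived factors and reported as log10(CPM+1).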
For “ATCAGGCCATGGACCGGTTTTCCCGGTAATCCGTATTTGAC (site ATCAGGCCTGT)”, the “recombinant UMI read abundance (log10)” value was 0. For “GCTTGGACATGGACCGGTTTTCCCGGTAATCCGTATTTGAC (site GATTGGACTGT)”, the “recombinant UMI read abundance (log10)” value was 0. With “TTAGCTGCATGGACCGGTTTTCCCGGTAATCCGTATTTGTG (site TTAGATGCTCA)” the “recombinant UMI read abundance (log10)” value was 0.0477. With “CTCATATCATGGACCGGTTTTCCCGGTAATCCGTATTTGTC (site CACATATCTGA)” the “recombinant UMI read abundance (log10)” value was 0.65. For “AGTACACCATGGACCGGTTTTCCCGGTAATCCGTATTTGAC (site AGTACACCTGT)”, the “recombinant UMI read abundance (log10)” value was 0. With “TATAATACATGGACCGGTTTTCCCGGTAATCCGTATTTGCA (site TAGAATACTTG)” the “recombinant UMI read abundance (log10)” value was 2.6. For “GTATTCACATGGACCGGTTTTCCCGGTAATCCGTATTTGTA (site GTATCCACTTA)”, the “recombinant UMI read abundance (log10)” value was 0.507. With “TAGCATTCATGGACCGGTTTTCCCGGTAATCCGTATTTGGT (site TAGCTTTCTAC)” the “recombinant UMI read abundance (log10)” value was 0. For “ACCGAATCATGGACCGGTTTTCCCGGTAATCCGTATTTGCA (site ACAGTATCTTG)”, the “recombinant UMI read abundance (log10)” value was 0. In the case of “TCGAAAACATGGACCGGTTTTCCCGGTAATCCGTATTTGCT (site ACGAAAACTAG)”, the “recombinant UMI read abundance (log10)” value is reported as 0. In the case of “ATTAGGCCATGGACCGGTTTTCCCGGTAATCCGTATTTGAC (site ATAAGGCCTGT)”, the “recombinant UMI read abundance (log10)” value is reported as 0. In the case of “TTCTCAGCATGGACCGGTTTTCCCGGTAATCCGTATTTGAG (site TTCTCAGCTCT)”, the “recombinant UMI read abundance (log10)” value is reported as 0.00607. For “TTATACTCATGGACCGGTTTTCCCGGTAATCCGTATTTGCA (site TTATACTCTTG)”, the “recombinant UMI read abundance (log10)” value was 2.72. For “CTTGTTCCATGGACCGGTTTTCCCGGTAATCCGTATTTGGT (site ATTGTTCCTAC)”, the “recombinant UMI read abundance (log10)” value was 0.0155. In the case of “TCAGAGACATGGACCGGTTTTCCCGGTAATCCGTATTTGCG (site TCAGAGACTCA)”, the “recombinant UMI read abundance (log10)” value is reported as 0.943. In the case of “CGCAGGCCATGGACCGGTTTTCCCGGTAATCCGTATTTGGG (site CGCAGGCCTCC)”, the “recombinant UMI read abundance (log10)” value is reported as 0. In the case of “CTGGAAACATGGACCGGTTTTCCCGGTAATCCGTATTTGCG (site CTGGAAACTTG)”, the “recombinant UMI read abundance (log10)” value is reported as 1.72. With “CAATACCCATGGACCGGTTTTCCCGGTAATCCGTATTTGCT (site CAATCCCCTAG)” the “recombinant UMI read abundance (log10)” value was 1.55. For “ATTCAGCCATGGACCGGTTTTCCCGGTAATCCGTATTTGTT (site ATTCAGCCTAA)”, the “recombinant UMI read abundance (log10)” value was 0.0136. With “TGCTAGGCATGGACCGGTTTTCCCGGTAATCCGTATTTGGG (site TGCTAGGCTGC)” the “recombinant UMI read abundance (log10)” value was 0. With “GTTCTAGCATGGACCGGTTTTCCCGGTAATCCGTATTTGCA (site GTTCAAGCTTG)” the “recombinant UMI read abundance (log10)” value was 0. In the case of “GGTCCGACATGGACCGGTTTTCCCGGTAATCCGTATTTGTA (site GGTCCTACTTA)”, the “recombinant UMI read abundance (log10)” value is reported as 0.0182. For “TGAATCACATGGACCGGTTTTCCCGGTAATCCGTATTTGAA (site CACGCGCCTGA)”, the “recombinant UMI read abundance (log10)” value was 0.00781. With “ATTGAGACATGGACCGGTTTTCCCGGTAATCCGTATTTGGT (site ATGGAGACTAC)” the “recombinant UMI read abundance (log10)” value was 0.639. With “TGTACCCCATGGACCGGTTTTCCCGGTAATCCGTATTTGAC (site TGTACACCTGT)” the “recombinant UMI read abundance (log10)” value was 0. In the case of “GAAGCGCCATGGACCGGTTTTCCCGGTAATCCGTATTTGTG (site TAAGCGCCTCA)”, the “recombinant UMI read abundance (log10)” value is reported as 0.00772. With “GTGGAGGCATGGACCGGTTTTCCCGGTAATCCGTATTTGTG (site GTAGAGGCTCA)” the “recombinant UMI read abundance (log10)” value was 1.94. With “ACGAAGCCATGGACCGGTTTTCCCGGTAATCCGTATTTGGG (site ACGAAGCCTCC)” the “recombinant UMI read abundance (log10)” value was 0.0169. With “TTTGCGGCATGGACCGGTTTTCCCGGTAATCCGTATTTGCT (site TTTGCGGCTTG)” the “recombinant UMI read abundance (log10)” value was 0.00988. For “ATCTCAGCATGGACCGGTTTTCCCGGTAATCCGTATTTGGG (site ATCTCAGCTCC)”, the “recombinant UMI read abundance (log10)” value was 0.323. For “CGTTTGGCATGGACCGGTTTTCCCGGTAATCCGTATTTGCC (site CGTTTGGCTAG)”, the “recombinant UMI read abundance (log10)” value was 0. In the case of “TGGCAACCATGGACCGGTTTTCCCGGTAATCCGTATTTGCT (site TGGCAACCTAG)”, the “recombinant UMI read abundance (log10)” value is reported as 0. With “TATCGAGCATGGACCGGTTTTCCCGGTAATCCGTATTTGTC (site TATCGAGCTGA)” the “recombinant UMI read abundance (log10)” value was 2.55. In the case of “CGTCTCTCATGGACCGGTTTTCCCGGTAATCCGTATTTGTA (site CATCTCTCTTA)”, the “recombinant UMI read abundance (log10)” value is reported as 1.13. For “CTGGAAACATGGACCGGTTTTCCCGGTAATCCGTATTTGCA (site CTGAAAACTTG)”, the “recombinant UMI read abundance (log10)” value was 0.744. With “TCAGAGACATGGACCGGTTTTCCCGGTAATCCGTATTTGCG (site TCAGTGACTCG)” the “recombinant UMI read abundance (log10)” value was 0.0233. In the case of “GTGGAGGCATGGACCGGTTTTCCCGGTAATCCGTATTTGTG (site GTCGAGGCTCA)”, the “recombinant UMI read abundance (log10)” value is reported as 0.00904. For “CGGAATCCATGGACCGGTTTTCCCGGTAATCCGTATTTGTA (site CGGAATCCTGA)”, the “recombinant UMI read abundance (log10)” value was 0. In the case of “GCCTAGACATGGACCGGTTTTCCCGGTAATCCGTATTTGGG (site GCCTAGACTCC)”, the “recombinant UMI read abundance (log10)” value is reported as 0.283. For “TTAGAGACATGGACCGGTTTTCCCGGTAATCCGTATTTGCG (site TAAGAGACTCG)”, the “recombinant UMI read abundance (log10)” value was 0.923. In the case of “AGGTGGGCATGGACCGGTTTTCCCGGTAATCCGTATTTGTG (site AGGTGGGCTCA)”, the “recombinant UMI read abundance (log10)” value is reported as 1.56. For “CGGGACCCATGGACCGGTTTTCCCGGTAATCCGTATTTGAT (site CGGGACCCTAT)”, the “recombinant UMI read abundance (log10)” value was 0.879. In the case of “TGGTAAGCATGGACCGGTTTTCCCGGTAATCCGTATTTGGC (site TGGTAAGCTGC)”, the “recombinant UMI read abundance (log10)” value is reported as 2.86. For “GAGCACGCATGGACCGGTTTTCCCGGTAATCCGTATTTGGG (site AAGCACGCTCC)”, the “recombinant UMI read abundance (log10)” value was 0.0191. With “GTCGAATCATGGACCGGTTTTCCCGGTAATCCGTATTTGGG (site GTCGAATCTCC)” the “recombinant UMI read abundance (log10)” value was 0.914. For “GAGCTCACATGGACCGGTTTTCCCGGTAATCCGTATTTGAT (site GTGCTCACTAT)”, the “recombinant UMI read abundance (log10)” value was 0.296. In the case of “ACGTGGCCATGGACCGGTTTTCCCGGTAATCCGTATTTGAG (site ACGTGGCCTCT)”, the “recombinant UMI read abundance (log10)” value is reported as 0.0124. In the case of “TCCGACGCATGGACCGGTTTTCCCGGTAATCCGTATTTGCT (site TCCGACGCTAG)”, the “recombinant UMI read abundance (log10)” value is reported as 0.968. For “CGCCGTACATGGACCGGTTTTCCCGGTAATCCGTATTTGAT (site CGCCGTACTAC)”, the “recombinant UMI read abundance (log10)” value was 0.0168. In the case of “CGGGAACCATGGACCGGTTTTCCCGGTAATCCGTATTTGGT (site CGGGAACCTAC)”, the “recombinant UMI read abundance (log10)” value is reported as 0. For “CAAGTATCATGGACCGGTTTTCCCGGTAATCCGTATTTGAC (site CAAGTATCTGT)”, the “recombinant UMI read abundance (log10)” value was 2.94. In the case of “TCAGAGACATGGACCGGTTTTCCCGGTAATCCGTATTTGAG (site TCAGAGACTCA)”, the “recombinant UMI read abundance (log10)” value is reported as 0.02. With “CTAGTATCATGGACCGGTTTTCCCGGTAATCCGTATTTGAC (site CTTGTATCTGT)” the “recombinant UMI read abundance (log10)” value was 1.57. With “GCGATCCCATGGACCGGTTTTCCCGGTAATCCGTATTTGCG (site GCGATCCCTCG)” the “recombinant UMI read abundance (log10)” value was 1.71. With “TCATACTCATGGACCGGTTTTCCCGGTAATCCGTATTTGCG (site TCATACTCTTG)” the “recombinant UMI read abundance (log10)” value was 2.1. In the case of “TCCACCGCATGGACCGGTTTTCCCGGTAATCCGTATTTGGG (site TCCACCGCTCT)”, the “recombinant UMI read abundance (log10)” value is reported as 0.0189. For “TCGTATGCATGGACCGGTTTTCCCGGTAATCCGTATTTGAC (site TCGTATGCTGT)”, the “recombinant UMI read abundance (log10)” value was 0.101.
